System: chickweed
Experiment: Volatility evaluation (phytotoxic injury of chickweed by volatilization from treated soil)
Conditions: formulations containing the non-encapsulated compound
Source text: Chickweed is very sensitive to clomazone and is a good indicator for bleaching compound volatility. […] These formulations are the reference standards against which the experimental formulations are compared. Four inch plastic pots were fitted with a basket style coffee filter, cut to size, placed in the bottom of each pot to cover the drainage holes and to stop soil from exiting the bottom of the pot. Each pot was filled with sandy loam soil that was sieved using a #10 mesh sieve to remove any large soil particles and debris. Filled soil pots were lightly watered prior to treatment application. The test solutions were applied to the soil surface using the DeVries Generation III sprayer, two replicates per test solution, at a rate of 0.25 g ai/ha. Each replicate test was set-up by placing an empty four inch plastic pot onto a greenhouse bench. Pots containing mature chickweed, about 2 inches in height, were placed around the empty pot in an eight spoke pattern. […] The untreated chickweed plants were evaluated for phytotoxic injury at 14 days after treatment. Volatility was evaluated by measuring the distance (cm) from the center of the treated soil pot to the distal point where bleaching effects were observed on each spoke. All eight spokes for each treatment were evaluated. The amount of volatility was determined by calculating the total square centimeters of phytotoxic injury per treatment. […]

With `CC1(C)CON(Cc2ccc(Cl)cc2Cl)C1=O` [2,4-Cl, 2-(2,4-dichlorophenyl)methyl-4,4-dimethyl-3-isoxazolidone] the “control of volatility compared to the non-encapsulated clomazone formulation” value was “significant control of volatility”.
`CC1(C)CON(Cc2cc(Cl)ccc2Cl)C1=O` [2,5-Cl, 2-(2,5-dichlorophenyl)methyl-4,4-dimethyl-3-isoxazolidone] was tested, and the “control of volatility compared to the non-encapsulated clomazone formulation” value was “significant control of volatility”.

Reference: patent US10667516B2, “Use of 3-isoxazolidinones as selective herbicides in grass and Brassica crops” (FMC Corporation, priority 2011, dated 2020)
